Data on 30 compounds can be found in patent US20110034472A1, “Novel Compounds for Treatment of Cancer and Disorders Associated With Angiogenesis Function” (UNIVERSITY OF SOUTHERN CALIFORNIA, priority 2004, published 2011).

Where a name gives a salt, the structure may show the parent alone. Read-outs that look alike come from different tables or passages of the source. Some results are limits rather than exact numbers.

One data set deals with MDA-MB-435 cells. The data set can be described thus: MTT assay, continuous drug exposure for 48 hours (Table 3). It is filed as cell-based, human. The conditions noted are these: Homo sapiens; for CC50: MDA-MB-435; for IC80: MDA-MB-435, read-out: CC80. For orientation: Tetrazolium assays rely on reduction of a dye to a coloured formazan, in cell work by metabolically active cells.

Another data set has as its system CEM or HEY cells. In words: Cytotoxicity of salicylhydrazides (Table 5). It is filed as cell-based. The conditions noted are these: Homo sapiens. The text has this:
Human prostate cancer cells (PC3, p53 null, AR−; DU145, p53 mutant, AR−; and LNCaP, p53 wild-type, AR+) and breast cancer cells (MCF-7, overexpressed wild-type p53, ER+; MDA-MB-468, p53 mutant, […]; and MDA-MB-435, p53 mutant, ER−) were obtained from American Type Cell Culture (Manassas, Va.). The human ovarian carcinoma cell line (HEY) naturally resistant to cisplatin (CDDP) was kindly provided by Dr. Dubeau (University of Southern California Norris Cancer Center; Buick et al. (1985) Cancer Res. 45:3668-76 and Hamaguchi et al. (1993) Cancer Res. 53:5225-32). The results with CEM cells were previously described (Neamati et al. (1998) J. Med. Chem. 41:3202-9). Cells were maintained as monolayer cultures in RPMI 1640 supplemented with 10% fetal bovine serum (Gemini-Bioproducts, Woodland, Calif.) and 2 mmol/L L-glutamine at 37° C. in a humidified atmosphere of 5% CO2. To remove the adherent cells from the flask for passaging and counting, cells were washed with PBS without calcium or magnesium, incubated with a small volume of 0.25% trypsin-EDTA solution (Sigma-Aldrich, St. Louis, Mo.) for 5 to 10 minutes, and washed with culture medium and centrifuged. All experiments were done using cells in exponential cell growth.
(§1) Cytotoxicity was assessed by a 3-(4,5-dimethylthiazol-2-yl)-2,5-diphenyltetrazolium bromide assay as previously described (Carmichael et al. (1987) Cancer Res. 47:936-42). Briefly, cells were seeded in 96-well microtiter plates (PC3 and DU145 at 5,000 cells/well and LNCaP at 10,000 cells/well; breast and ovarian cells at 4,000 cells/well) and allowed to attach. Cells were subsequently treated with a continuous exposure to the corresponding drug for 72 hours. A 3-(4,5-dimethylthiazol-2-yl)-2,5-diphenyltetrazolium bromide solution (at a final concentration of 0.5 mg/mL) was added to each well and cells were incubated for 4 hours at 37° C. After removal of the medium, DMSO was added and the absorbance was read at 570 nm. All assays were done in triplicate. The IC50 was then determined for each drug from a plot of log(drug concentration) versus percentage of cell kill.

For data set [1], the system named is MDA-MB-435 breast cancer cells. The data set can be described thus: MTT cytotoxicity assay, MDA-MB-435. It is filed as cell-based, human. The conditions noted are these: MTT, 72 h, read-out: IC50. The procedure:
The sensitivity of a panel of seven human cancer cell lines to SC144 was assessed by MTT-assay. […] The sensitivity towards SC144 was time- and dose-dependent.
as §1
(§2) Cytotoxicity was assessed by a 3-(4,5-dimethylthiazol-2-yl)-2,5-diphenyltetrazolium bromide (MTT) assay as previously described.^9 Briefly, cells were seeded in 96-well microtiter plates and allowed to attach. Cells were subsequently treated with continuous exposure to the corresponding drug for 72 h. An MTT solution (at a final concentration of 0.5 mg/mL) was added to each well, and cells were incubated for 4 h at 37° C. After removal of the medium, DMSO was added and the absorbance was read at 570 nm. All assays were done in triplicate. The IC50 was then determined for each drug from a plot of log (drug concentration) versus percentage of cells killed.

For data set [2], the system named is HCT 116 p53^+/+ colon cancer cells. In words: MTT cytotoxicity assay, HCT 116 p53+/+. In kind it is cell-based, human. The conditions noted are these: 72 h.
Excerpt: (§3) Human breast cancer cells MDA-MB-435 and colon cancer HT29, p53 mutant were purchased from the American Type Cell Culture (Manassas, Va.). The HCT116 P53^+/+ and HCT116 P53^−/− cells were kindly provided by Dr. Bert Vogelstein (Johns Hopkins Medical Institutions, Baltimore, Md.). Human prostate cancer cells, LNCaP, were kindly provided by Richard Cote (University of Southern California Keck School of Medicine). Cells were maintained as monolayer cultures in RPMI 1640 media supplemented with 10% fetal bovine serum (Gemini-Bioproducts, Woodland, Calif.) and 2 mmol/L L-glutamine at 37° C. in a humidified atmosphere of 5% CO2. To remove the adherent cells from the flask for passaging and counting, cells were washed with PBS without calcium or magnesium, incubated with a small volume of 0.25% trypsin-EDTA solution (Sigma-Aldrich, St. Louis, Mo.) for 5-10 min, and washed with culture medium and centrifuged. All experiments were performed using cells at exponential growth stage. Cells were routinely checked for mycoplasma contamination using a PCR-based assay (Stratagene, Cambridge, UK).
as §2

Data set [3] has as its system HCT 116 p53^−/− colon cancer cells. In words: MTT cytotoxicity assay, HCT 116 p53-/-. In kind it is cell-based, human. The conditions noted are these: 72 h.
Excerpt: as §3, §2

A further data set relates to HT29 colon cancer cells. The data set can be described thus: MTT cytotoxicity assay, HT 29. Conditions: 72 h. In kind it is cell-based, human.
Excerpt: as §3, §2

Take `O=C(NNc1nc2cc(F)ccc2n2cccc12)c1ccccn1` (as salt: hydrochloride) [SC160′, N′-(7-Fluoropyrrolo[1,2-a]quinoxalin-4-yl)pyridine-2-carbohydrazide hydrochloride]: the melting point (in general, the temperature of the solid-liquid transition) was > 280 °C (dec.).
The same measure, in the same setting: the result for `O=C(NNc1nc2cccc(F)c2n2cccc12)c1cnccn1` (as salt: hydrochloride) [SC161′, N′-(9-Fluoropyrrolo[1,2-a]quinoxalin-4-yl)pyrazine-2-carbohydrazide hydrochloride] reads 248 °C (dec.).
With `O=C(NNc1nc2cc(F)ccc2n2cccc12)c1cnc2ccccc2n1` (as salt: hydrochloride) [SC166′, N′-(7-Fluoropyrrolo[1,2-a]quinoxalin-4-yl)quinoxaline-2-carbohydrazide hydrochloride], the melting point was 280 °C (dec.).
Take `COc1cc([C@@H]2c3cc4c(cc3[C@@H](O[C@@H]3O[C@@H]5CO[C@@H](C)O[C@H]5[C@H](O)[C@H]3O)[C@H]3COC(=O)[C@H]23)OCO4)cc(OC)c1O` [Etoposide]: in the data set on MDA-MB-435 cells, the CC50 (commonly the concentration at which the toxic effect on the cells reaches its halfway point) was determined as 52.5 ± 3.5 µM and the IC80 is 300 ± 106 µM.
In the case of `O=C1c2c(O)ccc(O)c2C(=O)c2c(NCCNCCO)ccc(NCCNCCO)c21` [Mitoxantrone], in the data set with MDA-MB-435 cells, the CC50 amounted to 4.5 ± 1.4 µM and the IC80 came to 7.3 ± 0.35 µM.
Turning to `O=C(NNC(=O)c1ccccc1O)c1ccccc1O` [SC20], the IC50 (in general, the concentration that inhibits the measured activity by half) with CEM or HEY cells is 0.1 ± 0.01 µM.
The same measure, in the same setting: the result for `COc1ccc(/C=C2/C(=O)N(C(=O)c3ccccc3O)N=C2C)cc1OC` [SC25] reads 0.15 µM; that for `CC1=NN(C(=O)c2ccccc2O)C(=O)/C1=C/c1ccccc1O` [SC26], 0.06 µM; that for `CC1=NN(C(=O)c2ccccc2O)C(=O)/C1=C/c1ccc(O)cc1` [SC27], 0.06 µM.
The same measure, in the same setting: the result for `O=C(CN1C(=O)C/C(=C\c2ccc(Cl)cc2)C1O)NNC(=O)C1=CCCC=C1O` (stereo not drawn) [SC28] reads 10 ± 2 µM; that for `Cc1cccc(C(=O)NNC(O)c2ccc(N3C(=O)c4ccccc4C3=O)cc2)c1` (stereo not drawn) [SC29], 7 ± 2 µM; that for `O=C(CNC(=O)c1ccccc1O)c1ccc(N2C(=O)c3ccccc3C2=O)cc1` [SC30], 6.5 ± 1 µM.
In the case of `C=C/C=C(\C=C)N1N=C(C)/C(=C(/NNC(=O)c2ccccc2O)c2ccccc2)C1=O` [SC31], the midpoint of inhibition in the data set on CEM or HEY cells, the IC50, lay at 10 ± 2 µM.
The same measure, in the same setting: the result for `C=C/C=C(\C=C)N1N=C(C)/C(=C/NNC(=O)c2ccccc2)C1=O` [SC32] reads 2 ± 1 µM; that for `O=C(/C=C/NNC(=O)c1ccccc1O)c1ccccc1` [SC33], 20 µM; that for `O=C(COc1ccccc1Cl)NNC(=O)c1cc2ccccc2cc1O` [SC34], 20 µM.
On the same count and under the same terms, the result for `COc1ccc2oc(=O)c(C(=O)NNC(=O)c3cccc(C)c3)cc2c1` [SC35] reads 12 ± 2 µM.
The same measure, in the same setting: the result for `COc1ccc(NC(=O)NNC(=O)c2c(O)ccc3ccccc23)cc1` [SC36] reads 20 µM.
On to `C=C1C/C(=C\c2ccc(Cl)cc2)C(=O)N1CC(=O)NNC(=O)c1ccccc1O` [SC37], for which, in the data set with CEM or HEY cells, inhibition was half-maximal at 15 ± 3 µM (IC50).
Compound `O=C(NNc1nc2ccccc2n2cccc12)c1ccc[nH]1` [SC141, 1H-Pyrrole-2-carboxylic acid N′-pyrrolo[1,2-a]quinoxalin-4-yl-hydrazide] had a melting point of 210 to 212 °C.
The same measure, in the same setting: the result for `Cc1cc2nc(NNC(=O)c3cnccn3)c3cccn3c2cc1C` [SC143, Pyrazine-2-carboxylic acid N′-(7,8-dimethyl-pyrrolo[1,2-a]quinoxalin-4-yl)-hydrazide] reads 116 °C.
`NCCC(=O)NNc1nc2ccccc2n2cccc12` [SC154, 3-Amino-propionic acid N′-pyrrolo[1,2-a]quinoxalin-4-yl-hydrazide]: the melting point was 164.5 °C. Moreover, the IC50 in data set [1] (Homo sapiens) is above 20 µM. Also, the IC50 in data set [2] (Homo sapiens) was above 20 µM. The IC50 in data set [3] (Homo sapiens) was above 20 µM. Moreover, in the data set on HT29 colon cancer cells (Homo sapiens), the IC50 is above 20 µM.
`O=C(NNc1nc2ccccc2n2cccc12)c1cc2ccccc2[nH]1` [SC155, 1H-indole-2-carboxylic acid N′-pyrrolo[1,2-a]quinoxalin-4-yl-hydrazide]: the melting point is 186 °C. Besides, in data set [1] (Homo sapiens), the IC50 is above 20 µM. This compound also gave an IC50 in data set [2] (Homo sapiens) above 20 µM. This compound also returned an IC50 in data set [3] (Homo sapiens) above 20 µM. Further, the concentration for half-maximal inhibition (IC50) in the data set with HT29 colon cancer cells (Homo sapiens) is above 20 µM.
`O=C(NNc1nc2ccccc2n2cccc12)c1ccc2[nH]ccc2c1` [SC156, 1H-Indole-5-carboxylic acid N′-pyrrolo[1,2-a]quinoxalin-4-yl-hydrazide] showed a melting point of 160 °C. Moreover, the IC50 in data set [1] (Homo sapiens) is above 20 µM. This compound returned an IC50 in data set [2] (Homo sapiens) above 20 µM. This compound returned an IC50 in data set [3] (Homo sapiens) above 20 µM. For the same compound, in the data set on HT29 colon cancer cells (Homo sapiens), the IC50 is above 20 µM.
`COc1ccccc1C(=O)NNc1nc2ccccc2n2cccc12` [SC159, 2-Methoxy-N′-(H-pyrrolo[1,2-a]quinoxalin-4-yl)benzohydrazide]: the IC50 (in data set [1]; in data set [2]; in data set [3]; in the data set on HT29 colon cancer cells) was above 20 µM throughout.
As to `N#Cc1ccc(C(N)CC(=O)NNc2nc3ccccc3n3cccc23)cc1` (stereo not drawn) [SC163, 3-Amino-3-(4-cyano-phenyl)-propionic acid N′-pyrrolo[1,2-a]quinoxalin-4-yl-hydrazide], the IC50 (in data set [1] (Homo sapiens); in data set [2] (Homo sapiens); in data set [3] (Homo sapiens); in the data set on HT29 colon cancer cells (Homo sapiens)) was above 20 µM each time.
For the compound `COc1ccc(C(N)CC(=O)NNc2nc3ccccc3n3cccc23)cc1` (stereo not drawn) [SC164, 3-Amino-3-(4-methoxy-phenyl)-propionic acid N′-pyrrolo[1,2-a]quinoxalin-4-yl-hydrazide], the IC50 (in data set [1] (Homo sapiens); in data set [2] (Homo sapiens); in data set [3] (Homo sapiens); in the data set on HT29 colon cancer cells (Homo sapiens)) was above 20 µM each time.
As to `NC(CC(=O)NNc1nc2ccccc2n2cccc12)c1ccc(C(F)(F)F)cc1` (stereo not drawn) [SC165, 3-Amino-3-(4-trifluoromethyl-phenyl)-propionic acid N′-pyrrolo[1,2-a]quinoxalin-4-yl-hydrazide], the IC50 (in data set [1] (Homo sapiens); in data set [2] (Homo sapiens); in data set [3] (Homo sapiens); in the data set on HT29 colon cancer cells (Homo sapiens)) was above 20 µM each time.
On to `O=C(NNc1nc2ccccc2n2cccc12)c1ccccc1F` [SC166, 2-Fluoro-benzoic acid N′-pyrrolo[1,2-a]quinoxalin-4-yl-hydrazide], for which the IC50 in data set [1] (Homo sapiens) was found to be 15 ± 1 µM; in data set [2] (Homo sapiens), 8 ± 1 µM; in data set [3] (Homo sapiens), 11 ± 1 µM; in the data set with HT29 colon cancer cells (Homo sapiens), 13 ± 2 µM.
`CC(=O)O[C@H]1C(=O)[C@@]2(C)[C@H]([C@H](OC(=O)c3ccccc3)[C@]3(O)C[C@H](OC(=O)[C@H](O)[C@@H](NC(=O)c4ccccc4)c4ccccc4)C(C)=C1C3(C)C)[C@]1(OC(C)=O)CO[C@@H]1C[C@@H]2O` [Taxol]: in the data set with MDA-MB-435 cells, it took 0.04 ± 0.003 µM to reach half-maximal cytotoxicity (CC50) and the IC80 was determined as 0.07 ± 0.01 µM.
